Experimental data reported in patent publication US20180363057A1, “METHOD FOR EVALUATING INDIVIDUAL RADIOSENSITIVITY AND THE RISK OF ADVERSE EFFECTS” (COMMISSARIAT A L'ENERGIE ATOMIQUE ET AUX ENERGIES …, priority 2015, published 2018).

What was measured:
Assay type in all cases: cell-based, human
mTRAIL = assay: Cell-surface mTRAIL (CD253) level by flow cytometry on T4EM lymphocytes; conditions: 80 μg/ml
Description: TRAIL can be soluble (sTRAIL) or membrane-bound (mTRAIL)(Schneider et al., 1998, J. Exp. Med. 187:1205-1213; Wajant et al., 2001, Oncogene. 20:4101-4106). Under the experimental conditions used for radiation-induced apoptosis of T4EM lymphocytes, the levels of sTRAIL in media were below sandwich ELISA detection level (<20 pg/ml; data not shown). The inventors thus focused their study on mTRAIL. Using a monoclonal antibody panel comprising CD253, they measured the level of cell-surface mTRAIL expression by flow cytometry. A four-fold higher expression of mTRAIL was found on T4EM lymphocytes of “sensitive” compared to “resistant” samples (FIG. 3 A). […]
(§1) Treated cells were collected and washed with AnnexinV buffer (140mM NaCl, 5mM CaCl2, 10 mM HEPES; ph7.4), and stained with 2.5 μl AnnexinV-FITC in combination with fluorochrome-conjugated CD markers in 100 ul for 30 min. […] For CD253 (mTRAIL) quantification, a compact panel designed to limit the need for compensation including AnnexinV, CD253, CD3, CD4, and CD62L was used.
Cells were washed in AnnexinV-buffer and just prior flow cytometry, 50 μL of AnnexinV-buffer containing 0.2 μg/mL Hoechst 33258 (Molecular Probes, Eugene, Oreg.), was added for dead cell exclusion. Samples were analyzed using a three-laser CyAn LX system, (DakoCytomation, Fort Collins, Colo.) or a 5-laser SORP LSRII (Becton Dickinson). […]

T4EM lymphocytes [1] = assay: 1,10-phenanthroline induced apoptosis of T4EM lymphocytes (AnnexinV); conditions: for Effect on 1,10-phenanthroline induced apoptosis of T4EM lymphocytes: 80 μg/ml 1,10-phenanthroline, 2 hours, 4 μg/ml rh-sTRAIL or rh-sDR5
Protocol: Cell suspensions at approximately 5×10^5 cells/ml (or at cell densities specified in the results section) in RPM11640/15% FCS, were irradiated at a dose rate of approximately 0.5 Gy/min with a ^137Cs-source (IBL637; Cis-Bio international/Scherring, Saclay, France), where incubated in the presence of indicated concentrations of recombinant human soluble TRAIL (rh-sTRAlL), recombinant human soluble DR5 (rh-sDR5), anti-TRAIL cytotoxicity-blocking antibody (CD253; clone RIK-2), or of 1,10-phenanthroline (stock solution of 200 mM in DMSO). All experiments described were performed with the same batch of heat inactivated FCS, previously tested for compatibility with our experimental procedures. Incubations of 18 hours or less as specified in results section were at 37° C. and 5% CO2.
as §1
Cells were washed in AnnexinV-buffer and just prior flow cytometry, 50 μL of AnnexinV-buffer containing 0.2 μg/mL Hoechst 33258 (Molecular Probes, Eugene, Oreg.), was added for dead cell exclusion. Samples were analyzed using a three-laser CyAn LX system, (DakoCytomation, Fort Collins, Colo.) or a 5-laser SORP LSRII (Becton Dickinson). […] All fluorescence signals were log-amplified, and stored in listmode. CompBeads (Becton Dickinson) were used to assist in determination of spill-over in every individual experiment (CD3-FITC was used instead of AnnexinV-FITC) and Fluorescence Minus One (FMO) controls were used where needed, in particular for mTRAIL quantifications (SortWare; Becton Dickinson or Flowjo version 9.6.4; Treestar, Ashland, Oreg.). […]
Data was analyzed using Flowio. […] Subsequently, dead cells were excluded on the basis of HO33258 fluorescence. T Lymphocytes were identified on the basis of positive PETxR (CD3) fluorescence. […]

TRAIL-receptor DR5 = assay: Expression of proapoptotic TRAIL-receptor DR5 in T4EM lymphocytes; conditions: after 1,10-phenanthroline treatment; data not shown
Description: All fluorochrome-coupled monoclonal antibodies were used at saturating conditions, as determined by titrations. Anti-human CD antibodies came from Becton Dickinson ImmunoCytometry Systems (CD62L-PE, CD62L-PECy5.1, CD14-PECy5.1, CD-235a-PECy5.1, CD27-PECy5.1, CD4-PECy7, CD19-PECy7, CD45RA-APC, CD8-APCH7), from Beckman Coulter (CD3-PETxR) from Biolegend (CD253/TRAIL-PE, CD62L- BV421, CD3-BV605), or from R&D Systems (CD262/DR5-APC). Recombinant human soluble TRAIL (rh-sTRAIL) and recombinant human soluble DR5 ([…] was from R&D Systems, AnnexinV-FITC from Becton Dickinson, and 1,10-phenanthroline from Sigma-Aldrich.

T4EM lymphocytes [2] = assay: Radiation-induced apoptosis of T4EM lymphocytes (AnnexinV labeling, flow cytometry); conditions: 0.4 μg/ml rh-sTRAIL, 18 hours after irradiation at 0, 0.5, 1, 2 Gy
Description: The sensitivity of subpopulations of human T-lymphocytes to ionizing radiation-induced apoptosis was quantified eighteen hours after irradiation (0-2 Gy) of PBMC samples of healthy blood donors using the previously defined radio sensitivity assay based on immunophenotyping and AnnexinV-labeling. […] Exponential regression coefficients of dose-survival curves were used to classify human PBMC samples according to the radio sensitivity of their T4EM lymphocyte subpopulation, and “sensitive” and “resistant” samples were defined at the two ends of the T4EM radio sensitivity phenotype distribution. […]
as §1
Cells were washed in AnnexinV-buffer and just prior flow cytometry, 50 μL of AnnexinV-buffer containing 0.2 μg/mL Hoechst 33258 (Molecular Probes, Eugene, Oreg.), was added for dead cell exclusion. Samples were analyzed using a three-laser CyAn LX system, (DakoCytomation, Fort Collins, Colo.) or a 5-laser SORP LSRII (Becton Dickinson). […] All fluorescence signals were log-amplified, and stored in listmode. […]

Expression of proapoptotic TRAIL-receptor DR5 (TRAIL-receptor DR5)	Molecule	mTRAIL level in treated "resistant" samples versus untreated "sensitive" samples (mTRAIL; 2 hours)	mTRAIL expression in T4EM lymphocytes (mTRAIL; two hours after addition, "resistant" and "sensitive" samples)	Induction of apoptosis in T4EM lymphocytes (T4EM lymphocytes [1]; 80 μg/ml, two hours, no irradiation)	Effect on 1,10-phenanthroline induced apoptosis of T4EM lymphocytes (T4EM lymphocytes [1])	Effect on autocrine pro-apoptotic mode of action of mTRAIL in irradiated T4EM lymphocytes (T4EM lymphocytes [2])
increased expression	c1cnc2c(c1)ccc1cccnc12 [1,10-phenanthroline]	always remained lower	increase of mTRAIL expression	rapid induction of apoptosis		
	rh-sDR5: recombinant human soluble DR5 receptor				inhibited	
	rh-sTRAIL: recombinant human soluble TRAIL, from R&D Systems (protein, UniProt P50591 39-281, looked up, extracellular domain, recombinant human soluble TRAIL, from R&D Systems) extracellular domain: TNELKQMQDKYSKSGIACFLKEDDSYWDPNDEESMNSPCWQVKWQLRQLVRKMILRTSEETISTVQEKQQNISPLVRERGPQRVAAHITGTRGRSNTLSSPNSKNEKALGRKINSWESSRSGHSFLSNLHLRNGELVIHEKGFYYIYSQTYFRFQEEIKENTKNDKQMVQYIYKYTSYPDPILLMKSARNSCWSKDAEYGLYSIYQGGIFELKENDRIFVSVTNEHLIDMDHEASFFGAFLVG				inhibited	abolished
